The values that follow come from publication PMC3304000 (Bioorganic & medicinal chemistry, 2012).

≈ marks a conversion by molar mass, not a printed value. Where “and” joins values, the source holds several entries; their conditions need not be identical. Identical values can stand only once.

The subject of series [1] is Drug sensitive Mtb clinical strain #1. Kind of series: MIC against clinical Mtb strain in 7H9/glucose/glycerol/BSA/0.05% Tween 80. In kind it is cell-based. To be noted: Mycobacterium tuberculosis.
The subject of series [2] is Drug sensitive Mtb clinical strain #2. The series is described as above. In kind it is cell-based. The settings on record: Mycobacterium tuberculosis.
A short description of series [3]: Stability in simulated gastric fluid. The settings on record: after a 15-min incubation.
A short description of series [4]: In vitro stability in rat liver microsomes. The settings on record: after a 15-min incubation. In general terms: Microsomes from liver hold many membrane-bound enzymes, among them those of drug oxidation.
For series [5], the system named is Mtb H37Rv luxAB luminescence strain. Description: microbe, parasite or virus in culture. In kind it is cell-based. To be noted: Mycobacterium tuberculosis, read-out: LORA MIC (mean ± SD).
The subject of series [6] is twelve MDR- and XDR-Mtb strains. To be noted: cited from earlier work.

As to `O=C(OCc1ccccc1)c1coc(-c2ccccc2)n1` [Compound 2], the MIC in series [1] is 4.4 µM to 8.9 µM and 1.25 µg/mL to 2.5 µg/mL; in series [2] it was 2.2 to 4.4 µM (≈ 0.614 to 1.23 µg/mL). In addition, in series [3], the “compound remaining in simulated gastric fluid” value is 0.6%. In series [4], the “compound remaining in rat liver microsomes” value was 11%.

In the case of `O=C(OCc1ccccc1)c1csc(-c2ccccc2)n1` [Compound 5], in series [1], the MIC came out at 10 µg/mL (≈ 33.9 µM).

As for `Cc1ccn2c(C(=O)OCc3ccccc3)c(-c3ccccc3)nc2c1` [Compound 9, benzyl 7-methyl-2-phenylimidazo[1,2-a]pyridine-3-carboxylate], the MIC in series [5] was 22 µM (≈ 7.53 µg/mL).

Compound `Cc1ccn2c(C(=O)OCc3ccccc3)c(C)nc2c1` [Compound 11, benzyl 2,7-dimethylimidazo[1,2-a]pyridine-3-carboxylate] yielded an MIC in series [1] of under 0.01 µg/mL.

As for `Cc1ccn2c(C(=O)NCc3ccccc3)c(C)nc2c1` [Compound 12, N-benzyl-2,7-dimethylimidazo[1,2-a]pyridine-3-carboxamide], the “MIC against a panel of twelve MDR- and XDR-Mtb strains” value in series [6] is 0.07 to 2.3 µM. The “compound remaining in simulated gastric fluid” value in series [3] is 100%.

As to `O=[N+]([O-])c1cn2c(n1)OC[C@@H](OCc1ccc(OC(F)(F)F)cc1)C2` [PA-824, reference compound], the MIC in series [1] was 0.45 µM to 0.86 µM and 0.16 µg/mL to 0.31 µg/mL.
